Test results from ChEMBL document CHEMBL4020788, “Synthesis, SAR and molecular docking studies of benzo[d]thiazole-hydrazones as potential antibacterial and antifungal agents” (2017).
Active and inactive are the calls of the source. No cut-off for these calls is given here.

Tests used:
Assay type in all cases: functional
[1] = test system: Staphylococcus aureus; test: Antibacterial activity against Staphylococcus aureus at 25 ug/ml after 24 hrs by agar well diffusion method
[2] = test system: Staphylococcus aureus; test: Antibacterial activity against Staphylococcus aureus at 50 ug/ml after 24 hrs by agar well diffusion method
[3] = test system: Staphylococcus aureus; test: Antibacterial activity against Staphylococcus aureus at 75 ug/ml after 24 hrs by agar well diffusion method
[4] = test system: Staphylococcus aureus; test: Antibacterial activity against Staphylococcus aureus at 100 ug/ml after 24 hrs by agar well diffusion method
[5] = test system: Bacillus subtilis; test: Antibacterial activity against Bacillus subtilis at 25 ug/ml after 24 hrs by agar well diffusion method
[6] = test system: Bacillus subtilis; test: Antibacterial activity against Bacillus subtilis at 50 ug/ml after 24 hrs by agar well diffusion method
[7] = test system: Bacillus subtilis; test: Antibacterial activity against Bacillus subtilis at 75 ug/ml after 24 hrs by agar well diffusion method
[8] = test system: Bacillus subtilis; test: Antibacterial activity against Bacillus subtilis at 100 ug/ml after 24 hrs by agar well diffusion method
[9] = test system: Escherichia coli; test: Antibacterial activity against Escherichia coli at 25 ug/ml after 24 hrs by agar well diffusion method
[10] = test system: Escherichia coli; test: Antibacterial activity against Escherichia coli at 50 ug/ml after 24 hrs by agar well diffusion method
[11] = test system: Escherichia coli; test: Antibacterial activity against Escherichia coli at 75 ug/ml after 24 hrs by agar well diffusion method; conditions: read-out: DIZ
[12] = test system: Escherichia coli; test: Antibacterial activity against Escherichia coli at 100 ug/ml after 24 hrs by agar well diffusion method; conditions: read-out: DIZ
[13] = test system: Klebsiella pneumoniae; test: Antibacterial activity against Klebsiella pneumoniae at 25 ug/ml after 24 hrs by agar well diffusion method
[14] = test system: Klebsiella pneumoniae; test: Antibacterial activity against Klebsiella pneumoniae at 50 ug/ml after 24 hrs by agar well diffusion method
[15] = test system: Klebsiella pneumoniae; test: Antibacterial activity against Klebsiella pneumoniae at 75 ug/ml after 24 hrs by agar well diffusion method
[16] = test system: Klebsiella pneumoniae; test: Antibacterial activity against Klebsiella pneumoniae at 100 ug/ml after 24 hrs by agar well diffusion method
[17] = test system: Staphylococcus aureus; test: Antibacterial activity against methicillin resistant Staphylococcus aureus MRSA090 at 25 ug/ml after 24 hrs by agar well diffusion method; conditions: MRSA090, 24 h, read-out: DIZ
[18] = test system: Staphylococcus aureus; test: Antibacterial activity against methicillin resistant Staphylococcus aureus MRSA090 at 50 ug/ml after 24 hrs by agar well diffusion method; conditions: MRSA090, 24 h, read-out: DIZ
[19] = test system: Staphylococcus aureus; test: Antibacterial activity against methicillin resistant Staphylococcus aureus MRSA090 at 75 ug/ml after 24 hrs by agar well diffusion method; conditions: MRSA090, 24 h, read-out: DIZ
[20] = test system: Staphylococcus aureus; test: Antibacterial activity against methicillin resistant Staphylococcus aureus MRSA090 at 100 ug/ml after 24 hrs by agar well diffusion method; conditions: MRSA090, 24 h, read-out: DIZ
[21] = test system: Aspergillus niger; test: Antifungal activity against Aspergillus niger at 25 ug/ml after 48 hrs by agar well diffusion method; conditions: read-out: DIZ
[22] = test system: Aspergillus niger; test: Antifungal activity against Aspergillus niger at 50 ug/ml after 48 hrs by agar well diffusion method; conditions: read-out: DIZ
[23] = test system: Aspergillus niger; test: Antifungal activity against Aspergillus niger at 75 ug/ml after 48 hrs by agar well diffusion method; conditions: read-out: DIZ
[24] = test system: Aspergillus niger; test: Antifungal activity against Aspergillus niger at 100 ug/ml after 48 hrs by agar well diffusion method; conditions: read-out: DIZ
[25] = test system: Fusarium verticillioides; test: Antifungal activity against Fusarium moniliforme at 25 ug/ml after 48 hrs by agar well diffusion method
[26] = test system: Fusarium verticillioides; test: Antifungal activity against Fusarium moniliforme at 50 ug/ml after 48 hrs by agar well diffusion method
[27] = test system: Fusarium verticillioides; test: Antifungal activity against Fusarium moniliforme at 75 ug/ml after 48 hrs by agar well diffusion method
[28] = test system: Fusarium verticillioides; test: Antifungal activity against Fusarium moniliforme at 100 ug/ml after 48 hrs by agar well diffusion method
[29] = test system: Fusarium oxysporum; test: Antifungal activity against Fusarium oxysporum at 25 ug/ml after 48 hrs by agar well diffusion method
[30] = test system: Fusarium oxysporum; test: Antifungal activity against Fusarium oxysporum at 50 ug/ml after 48 hrs by agar well diffusion method
[31] = test system: Fusarium oxysporum; test: Antifungal activity against Fusarium oxysporum at 75 ug/ml after 48 hrs by agar well diffusion method
[32] = test system: Fusarium oxysporum; test: Antifungal activity against Fusarium oxysporum at 100 ug/ml after 48 hrs by agar well diffusion method

Cc1cccc2nc(N/N=C/c3ccncc3)sc12
diameter of the inhibition zone (DIZ) [1]: inactive
diameter of the inhibition zone (DIZ) [2]: inactive
diameter of the inhibition zone (DIZ) [3]: inactive
diameter of the inhibition zone (DIZ) [4]: inactive
diameter of the inhibition zone (DIZ) [5]: inactive
diameter of the inhibition zone (DIZ) [6]: inactive
diameter of the inhibition zone (DIZ) [7]: inactive
diameter of the inhibition zone (DIZ) [8]: inactive
zone of inhibition at 25 µg/mL ([9]; read-out: DIZ): 7 mm
zone of inhibition at 50 µg/mL ([10]; read-out: DIZ): 14 mm
zone of inhibition at 75 µg/mL [11]: 16 mm
zone of inhibition at 100 µg/mL [12]: 19 mm
zone of inhibition at 25 µg/mL ([13]; read-out: DIZ): 5 mm
zone of inhibition at 50 µg/mL ([14]; read-out: DIZ): 9 mm
zone of inhibition at 75 µg/mL ([15]; read-out: DIZ): 14 mm
zone of inhibition at 100 µg/mL ([16]; read-out: DIZ): 18 mm
zone of inhibition at 25 µg/mL [17]: 7 mm
zone of inhibition at 50 µg/mL [18]: 10 mm
zone of inhibition at 75 µg/mL [19]: 14 mm
zone of inhibition at 100 µg/mL [20]: 17 mm
zone of inhibition at 25 µg/mL [21]: 6 mm
zone of inhibition at 50 µg/mL [22]: 11 mm
zone of inhibition at 75 µg/mL [23]: 13 mm
zone of inhibition at 100 µg/mL [24]: 16 mm
diameter of the inhibition zone (DIZ) [25]: inactive
diameter of the inhibition zone (DIZ) [26]: inactive
diameter of the inhibition zone (DIZ) [27]: inactive
diameter of the inhibition zone (DIZ) [28]: inactive
diameter of the inhibition zone (DIZ) [29]: inactive
diameter of the inhibition zone (DIZ) [30]: inactive
diameter of the inhibition zone (DIZ) [31]: inactive
diameter of the inhibition zone (DIZ) [32]: inactive

Cc1cccc2nc(N/N=C/c3ccc(Cl)cc3)sc12
zone of inhibition at 25 µg/mL ([1]; read-out: DIZ): 5 mm
zone of inhibition at 50 µg/mL ([2]; read-out: DIZ): 9 mm
zone of inhibition at 75 µg/mL ([3]; read-out: DIZ): 11 mm
zone of inhibition at 100 µg/mL ([4]; read-out: DIZ): 13 mm
zone of inhibition at 25 µg/mL ([5]; read-out: DIZ): 7 mm
zone of inhibition at 50 µg/mL ([6]; read-out: DIZ): 9 mm
zone of inhibition at 75 µg/mL ([7]; read-out: DIZ): 11 mm
zone of inhibition at 100 µg/mL ([8]; read-out: DIZ): 14 mm
diameter of the inhibition zone (DIZ) [9]: inactive
diameter of the inhibition zone (DIZ) [10]: inactive
zone of inhibition at 75 µg/mL [11]: 6 mm
zone of inhibition at 100 µg/mL [12]: 10 mm
diameter of the inhibition zone (DIZ) [13]: inactive
diameter of the inhibition zone (DIZ) [14]: inactive
diameter of the inhibition zone (DIZ) [15]: inactive
diameter of the inhibition zone (DIZ) [16]: inactive
zone of inhibition at 25 µg/mL [17]: 4 mm
zone of inhibition at 50 µg/mL [18]: 9 mm
zone of inhibition at 75 µg/mL [19]: 12 mm
zone of inhibition at 100 µg/mL [20]: 15 mm
zone of inhibition at 25 µg/mL [21]: 8 mm
zone of inhibition at 50 µg/mL [22]: 13 mm
zone of inhibition at 75 µg/mL [23]: 16 mm
zone of inhibition at 100 µg/mL [24]: 19 mm
zone of inhibition at 25 µg/mL ([25]; read-out: DIZ): 11 mm
zone of inhibition at 50 µg/mL ([26]; read-out: DIZ): 14 mm
zone of inhibition at 75 µg/mL ([27]; read-out: DIZ): 20 mm
zone of inhibition at 100 µg/mL ([28]; read-out: DIZ): 26 mm
zone of inhibition at 50 µg/mL ([30]; read-out: DIZ): 11 mm
zone of inhibition at 75 µg/mL ([31]; read-out: DIZ): 14 mm
zone of inhibition at 100 µg/mL ([32]; read-out: DIZ): 17 mm
